Assays:
DENV-2 NGC = test: Antiviral activity against DENV-2 NGC in Vero-B cells (viral RNA load by RT-qPCR); type: cell-based, Dengue virus; settings: Dengue virus, DENV2, Vero B, DENV-2 in Vero-B cells; inhibition of viral RNA replication by 50% (Table 3)
[1] = tested on: DENV-1 Djibouti strain D1/H/IMTSSA/98/606; test: Antiviral activity against DENV-1 in Vero-B cells (viral RNA load by RT-qPCR); type: cell-based, Dengue virus; settings: Dengue virus, DENV1, Vero B
[2] = tested on: DENV-3 strain H87 prototype; test: Antiviral activity against DENV-3 in Vero-B cells (viral RNA load by RT-qPCR); type: cell-based, Dengue virus; settings: Dengue virus, DENV3, Vero B
[3] = tested on: DENV-4 strain Dak HD 34 460; test: Antiviral activity against DENV-4 in Vero-B cells (viral RNA load by RT-qPCR); type: cell-based, Dengue virus; settings: Dengue virus, DENV4, Vero B
in vitro = settings: African green monkey; for CC50 at 4 days: uninfected quiescent Vero-B cells

Row | SMILES | EC50 (DENV-2 NGC) | EC50 [1] | EC50 [2] | EC50 [3] | CC50 at 4 days (in vitro) | CC50 (in vitro)
1 | COc1cccc(NC(C(=O)c2c[nH]c3ccc(C#N)cc23)c2ccccc2)c1 (stereo not shown) [CPD-126] | 0.07 µM | 2.99 µM | 8.5 µM | 6.29 µM | 16 µM | 
2 | COc1cccc(NC(C(=O)c2c[nH]c3ccc(C)cc23)c2ccccc2)c1 (stereo not shown) [CPD-130] | 0.03 µM | 0.35 µM | 1.7 µM | 7.42 µM | 15 µM | 
3 | COc1cccc(NC(C(=O)c2cn(C)c3ccc(F)cc23)c2ccccc2)c1 (stereo not shown) [CPD-137] | 0.05 µM | 0.67 µM | 3.81 µM | 2.78 µM | > 128 µM | 
4 | COc1cccc(NC(C(=O)c2cn(CCO)c3ccc(F)cc23)c2ccccc2)c1 (stereo not shown) [CPD-146] | 0.05 µM | 0.69 µM | 2.72 µM | 4.25 µM |  | 25 µM
5 | COc1cc(NC(C(=O)c2cn(CCO)c3ccccc23)c2ccccc2)cc(OC)c1 (stereo not shown) [CPD-148] | 0.07 µM | 1.65 µM | 5.54 µM | 2.87 µM |  | 44 µM
6 | COc1cccc(NC(C(=O)c2c[nH]c3cc(Cl)ccc23)c2cn3ccccc3n2)c1 (stereo not shown) [CPD-150] | 0.03 µM | 1.28 µM | 1.07 µM | 8.87 µM | 105 µM | 
7 | COc1cccc(NC(C(=O)c2c[nH]c3ccc(F)cc23)c2cccnc2)c1 (stereo not shown) [CPD-151] | 0.09 µM | 0.53 µM | 2.1 µM | 4.87 µM | > 133 µM | 
8 | COc1cccc(NC(C(=O)c2c[nH]c3cc(F)ccc23)c2cccnc2)c1 (stereo not shown) [CPD-152] | 0.09 µM | 2.05 µM | 0.99 µM | 5.62 µM | 75 µM | 
9 | COc1cccc(NC(C(=O)c2c[nH]c3c(F)cccc23)c2cccnc2)c1 (stereo not shown) [CPD-153] | 0.29 µM | 6.26 µM | 2.26 µM | 3.68 µM | > 133 µM | 
10 | COc1cccc(NC(C(=O)c2c[nH]c3ccc(F)cc23)c2ccc(OC)nc2)c1 (stereo not shown) [CPD-154] | 0.06 µM | 3.92 µM | 4.4 µM | 9.87 µM | 44 µM | 
11 | COc1cc(NC(C(=O)c2cn(CCCO)c3ccc(F)cc23)c2ccccc2)cc(OC)c1 (stereo not shown) [CPD-156] | 0.02 µM | 0.61 µM | 2.12 µM | 3.37 µM |  | 11 µM
12 | COc1cncc(NC(C(=O)c2c[nH]c3cc(F)ccc23)c2ccccc2)c1 (stereo not shown) [CPD-157] | 0.05 µM | 1.31 µM | 0.85 µM | 5.1 µM | 15 µM | 
13 | COc1cncc(NC(C(=O)c2c[nH]c3ccccc23)c2ccc(OC)nc2)c1 (stereo not shown) [CPD-158] | 0.09 µM | 2.5 µM | 2.19 µM | 7.2 µM | 63 µM | 
14 | COc1cncc(NC(C(=O)c2c[nH]c3ccccc23)c2ccc(C#N)cc2)c1 (stereo not shown) [CPD-159] | 0.11 µM | 1.48 µM | 3.16 µM | 6.86 µM | 67 µM | 
15 | COc1cccc(NC(C(=O)c2nn(C)c3ccccc23)c2ccccc2)c1 (stereo not shown) [CPD-203] | 0.73 µM | 5.09 µM | 5.06 µM | 5.32 µM | > 134 µM | 
16 | COc1cc(NC(C(=O)c2c[nH]c3ccc(F)cc23)c2ccc(OC)nc2)cc(OC)c1 (stereo not shown) [CPD-206] | 0.02 µM | 0.37 µM | 0.67 µM | 1.52 µM | 12 µM | 
17 | COc1cccc(NC(C(=O)c2c[nH]c3cc(F)ccc23)c2ccc(OC)nc2)c1 (stereo not shown) [CPD-213] | 0.06 µM | 0.81 µM | 2.54 µM | 2.85 µM | 15 µM | 
18 | COc1cccc(NC(C(=O)c2c[nH]c3ccccc23)c2ccc(F)nc2)c1 (stereo not shown) [CPD-214] | 0.03 µM | 0.15 µM | 0.99 µM | 4.16 µM | 16 µM | 
19 | COc1cccc(NC(C(=O)c2c[nH]c3c(OC)cccc23)c2ccccc2)c1 (stereo not shown) [CPD-222] | 0.13 µM | 1.81 µM | 3.27 µM | 3.14 µM | > 129 µM | 
20 | COc1cccc(NC(C(=O)c2c[nH]c3ccc(S(C)(=O)=O)cc23)c2ccccc2)c1 (stereo not shown) [CPD-229] | 2.4 µM | 2.81 µM | 43 µM | 7.55 µM | > 115 µM | 
21 | COc1cc(NC(C(=O)c2c[nH]c3nc(C)ccc23)c2ccccc2)cc(OC)c1 (stereo not shown) [CPD-232] | 0.1 µM | 0.85 µM | 2.69 µM | 1.15 µM | > 125 µM | 
22 | COc1cc(NC(C(=O)c2c[nH]c3ccccc23)c2ccc(C#N)cc2)cc(OC)c1 (stereo not shown) [CPD-233] | 0.01 µM | 0.22 µM | 1.29 µM | 3.09 µM | 11 µM | 

Row | SMILES | EC50 (DENV-2 NGC) | EC50 [1] | EC50 [2] | EC50 [3] | CC50 at 4 days (in vitro) | CC50 (in vitro)
23 | COc1cc(NC(C(=O)c2c[nH]c3ncc(F)cc23)c2ccccc2)cc(OC)c1 (stereo not shown) [CPD-234] | 0.05 µM | 0.76 µM | 2 µM | 4.19 µM | 15 µM | 
24 | COc1cccc(NC(C(=O)c2c[nH]c3ccccc23)c2cn3ncccc3n2)c1 (stereo not shown) [CPD-238] | 0.04 µM | 0.54 µM | 1.65 µM | 10.2 µM | > 125 µM | 
25 | COc1cccc(NC(C(=O)c2c[nH]c3ccccc23)c2cnc(OC)nc2)c1 (stereo not shown) [CPD-240] | 0.11 µM | 1.2 µM | 2.38 µM | 8.73 µM | 63 µM | 
26 | COc1cncc(NC(C(=O)c2c[nH]c3ccc(F)cc23)c2ccc(OC)nc2)c1 (stereo not shown) [CPD-241] | 0.04 µM | 0.62 µM | 0.62 µM | 5.69 µM | 58 µM | 
27 | COc1cccc(NC(C(=O)c2cn(CCO)c3cc(F)ccc23)c2ccccc2)c1 (stereo not shown) [CPD-245] | 0.08 µM | 0.7 µM | 2.38 µM | 3.01 µM |  | 16 µM
28 | COc1cccc(NC(C(=O)c2c[nH]c3ccccc23)c2cnc(OC)cn2)c1 (stereo not shown) [CPD-249] | 0.1 µM | 1.13 µM | 4.57 µM | 1.98 µM | 53 µM | 
29 | COc1cc(NC(C(=O)c2c[nH]c3ccccc23)c2ccccc2)cnc1OC (stereo not shown) [CPD-256] | 0.19 µM | 6.76 µM | 4.49 µM | 19.9 µM | 83 µM | 
30 | COc1cccc(NC(C(=O)c2nn(C)c3ccccc23)c2ccc(C#N)cc2)c1 (stereo not shown) [CPD-260] | 0.08 µM | 6.63 µM | 22.6 µM | 5.44 µM | > 126 µM | 
31 | COc1cc(NC(C(=O)c2nn(C)c3ccccc23)c2ccccc2)cc(OC)c1 (stereo not shown) [CPD-265] | 0.02 µM | 0.29 µM | 1.64 µM | 4.88 µM | > 124 µM | 
32 | COc1cccc(NC(C(=O)c2nn(C)c3cc(OC)ccc23)c2ccccc2)c1 (stereo not shown) [CPD-266] | 0.06 µM | 0.7 µM | 4.32 µM | 3.51 µM | > 124 µM | 
33 | COc1cccc(NC(C(=O)c2nn(C)c3ccccc23)c2cc3ccccn3n2)c1 (stereo not shown) [CPD-273] | 0.32 µM | 0.58 µM | 7.66 µM | 8.41 µM | > 122 µM | 
34 | COc1cc(CO)cc(NC(C(=O)c2nn(C)c3ccccc23)c2ccccc2)c1 (stereo not shown) [CPD-278] | 0.27 µM | 2.84 µM | 13.2 µM | 5.8 µM | > 125 µM | 
35 | COc1cc(NC(C(=O)c2nn(C)c3ccccc23)c2cccnc2)cc(OC)c1 (stereo not shown) [CPD-279] | 0.18 µM | 0.62 µM | 0.89 µM | 8.66 µM | > 124 µM | 
36 | COc1cccc(NC(C(=O)c2nn(C)c3cc(F)ccc23)c2ccccc2)c1 (stereo not shown) [CPD-281] | 0.21 µM | 0.85 µM | 5.57 µM | 1.12 µM | > 128 µM | 
37 | COc1cc(CO)cc(NC(C(=O)c2c[nH]c3ccccc23)c2cccnc2)c1 (stereo not shown) [CPD-282] | 0.26 µM | 1.24 µM | 3.12 µM | 13.1 µM | > 128 µM | 
38 | COc1cc(CO)cc(NC(C(=O)c2c[nH]c3ccccc23)c2ccc(OC)nc2)c1 (stereo not shown) [CPD-283] | 0.17 µM | 2.83 µM | 7.14 µM | 7.89 µM | 56 µM | 
39 | COc1cc(CO)cc(NC(C(=O)c2c[nH]c3cc(F)ccc23)c2ccccc2)c1 (stereo not shown) [CPD-285] | 0.04 µM | 0.84 µM | 2.2 µM | 2.31 µM | 50 µM | 
40 | COc1cc(CO)cc(NC(C(=O)c2c[nH]c3ccccc23)c2cnc(OC)cn2)c1 (stereo not shown) [CPD-288] | 0.12 µM | 1.9 µM | 2.7 µM | 6.33 µM | 77 µM | 
41 | COc1cc(CO)cc(NC(C(=O)c2c[nH]c3ccccc23)c2cc3ccccn3n2)c1 (stereo not shown) [CPD-289] | 0.06 µM | 0.8 µM | 0.91 µM | 10.2 µM | 68 µM | 
42 | COc1cc(NC(C(=O)c2c[nH]c3ccccc23)c2ccc(OC)nc2)cc(OCCO)c1 (stereo not shown) [CPD-291] | 0.06 µM | 0.8 µM | 0.8 µM | 8.67 µM | 53 µM | 
43 | COc1cc(NC(C(=O)c2c[nH]c3ccccc23)c2cnc(OC)cn2)cc(OCCO)c1 (stereo not shown) [CPD-292] | 0.06 µM | 0.83 µM | 1.11 µM | 7.08 µM | 68 µM | 
44 | COc1cccc(NC(C(=O)c2c[nH]c3ccc(F)cc23)c2cnc(OC)cn2)c1 (stereo not shown) [CPD-295] | 0.03 µM | 0.34 µM | 1.38 µM | 6.29 µM | 18 µM | 

From patent US12012411B2, “Viral replication inhibitors” (Katholieke Universiteit Leuven, priority 2011, dated 2024)
